Molecular target: T1, Top1 (Homo sapiens, UniProt P11387)
T1 construct: CPT-induced TOP1 degradation in breast cancer cell lines; host or cells: human breast cancer cell lines BT474, BT20, MCF-7, MDA-MB-231, T47D, Sk-Br-3 (MCF-10A as control)
T1 sequence (P11387 1-765): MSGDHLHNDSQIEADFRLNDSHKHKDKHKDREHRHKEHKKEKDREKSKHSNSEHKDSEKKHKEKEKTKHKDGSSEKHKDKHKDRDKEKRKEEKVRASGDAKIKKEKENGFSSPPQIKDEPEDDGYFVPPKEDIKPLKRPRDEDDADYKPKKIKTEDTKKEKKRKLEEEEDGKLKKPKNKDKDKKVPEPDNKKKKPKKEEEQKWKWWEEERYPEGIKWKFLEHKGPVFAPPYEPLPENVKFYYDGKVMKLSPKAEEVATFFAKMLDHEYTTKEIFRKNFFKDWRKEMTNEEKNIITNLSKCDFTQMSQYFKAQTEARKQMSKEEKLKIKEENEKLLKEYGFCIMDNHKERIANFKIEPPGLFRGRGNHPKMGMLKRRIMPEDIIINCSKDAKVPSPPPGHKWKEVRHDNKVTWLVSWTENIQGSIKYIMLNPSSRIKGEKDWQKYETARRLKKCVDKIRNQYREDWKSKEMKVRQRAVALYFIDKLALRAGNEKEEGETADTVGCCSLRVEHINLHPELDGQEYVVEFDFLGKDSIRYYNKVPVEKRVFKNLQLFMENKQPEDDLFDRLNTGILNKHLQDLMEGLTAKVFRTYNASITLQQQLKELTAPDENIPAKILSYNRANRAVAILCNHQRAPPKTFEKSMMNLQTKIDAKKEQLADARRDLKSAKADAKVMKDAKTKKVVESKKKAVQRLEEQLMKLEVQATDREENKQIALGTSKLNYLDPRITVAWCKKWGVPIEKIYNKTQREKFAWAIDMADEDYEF
Assay: CPT-induced TOP1 down regulation assay (immunoblotting)
Type: cell-based
Experimental: FIG. 1. CPT-induced TOP1 degradation in breast cancer cell lines. A) Expression of endogenous CUL4A and 4B in breast cancer cell lines. Total cell lysates were prepared from the indicated breast cancer cell lines and subjected to SDS PAGE and immunoblotting with antibodies against CUL4A, 4B and α-tubulin. The non-cancerous MCF-10A cell line was used as a control for comparison. B) CPT-induced TOP1 degradation in breast cancer cell lines. Cells were treated with 12.5 μM CPT or 1% DMSO for 4 hours, replenished with CPT-free fresh medium and incubated at 37° C. for 30 minutes to reverse the formation of TOP1 cleavable complex. Cells were then lysed and immunoblotted with the TOP1 and α-tubulin antibodies.
FIG. 2. CUL4B interacted with Top1 and induced Top1 degradation in the presence of CPT. A) Knockdown of CUL4B impaired CPT-induced Top1 degradation. BT474 cells were infected with lentiviral shCUL4B, shCUL4A or control non-targeting shRNA, and selected for stable CUL4B^k/d or CUL4A^k/d cells upon treatment with puromycin. Following treatment with CPT (50 μM) for 1 hour, cells were replenished with CPT-free fresh medium and incubated at 37° C. for 30 minutes. Top1 degradation was assessed by immunoblotting with an anti-Top1 antibody. Levels of α-tubulin were measured as a loading control. B) Association of CUL4B with Top1 following CPT treatment. BT474 cells were treated with proteosome inhibitor MG132 (15 μM) for 3 hours, and were subjected to crosslinking with 0.2 mM Dithiobis[succinimidyl propionate](DSP) for the last 30 min at room temperature. Cell lysates were prepared, and immunoprecipitated with the anti-Top1 or anti-CUL4B antibodies, and then immunoblotted using antibodies against CUL4B or Top1, respectively. IgG immunoprecipitates served as the negative control. C) Knockdown of CUL4B using a second shCUL4B-2 impaired CPT-induced Top1 degradation. BT474 cells were infected with lentiviral shCUL4B-2, shCUL4A-2 or control non-targeting shRNA and selected for stable CUL4B^k/d or CUL4A^k/d cells upon treatment with puromycin. Following treatment with CPT (50 μM) for 1.5 hr, cells were replenished with CPT-free fresh medium and incubated at 37° C. for 30 min. Top1 degradation was assessed by immunoblotting with the anti-Top1 antibody. Levels of α-tubulin were measured as a loading control. D) CUL4B inactivation sensitized BT474 cells to cytotoxic killing by camptothecin. BT474, BT474-CUL4A^k/d or BT474-CUL4B^k/d cells were synchronized with 1 μM nocodazole for 13 hours released in fresh medium, treated with the indicated concentrations of CPT for three days, and subjected to the XTT assay to measure the cytotoxic responses to CPT. […] The bars indicate the S.E. of six independent experiments. Statistical significance in cellular response to CPT between control BT474 cells and CUL4A^k/d or CUL4B^k/d cells were assessed by a two-tailed unpaired student t-test (***: p<0.001). The same results were obtained with a second lentiviral shRNA for CUL4A and CUL4B, as well as in T47D breast cancer cells. E, F) Knockdown of CUL4B increased the sensitivity of T47D cells to camptothecin. […] Statistical significance in cellular response to camptothecin between control cells and CUL4A^k/d or CUL4B^k/d BT474 cells are assessed by student's t-test.
CPT-induced Top1 degradation was monitored by immunoblotting of the alkaline lysates. […]

Row | Compound | CPT-induced Top1 degradation compared to control (shCtrl) (CUL4A knockdown BT474 cells, CPT 50 μM, 1 hour) | CPT-induced Top1 degradation (CUL4B-silenced (CUL4B k/d) BT474 cells, CPT 50 μM, 1 hour) | Top1 degradation following treatment with CPT (breast cancer cells exhibiting elevated levels of CUL4B expression, 12.5 μM CPT, 4 hours) | Effect of shRNA knockdown on CPT-induced Top1 degradation (BT474 cells, lentiviral shRNA, CPT 50 μM, 1 to 1.5 hr)
1 | CC[C@@]1(O)C(=O)OCc2c1cc1n(c2=O)Cc2cc3ccccc3nc2-1 [CPT, (S)-4-ethyl-4-hydroxy-1H-pyrano[3′,4′:6,7]indolizino[1,2-b]quinoline-3,14-(4H, 12H)-dione] | no effect | abolished | eliminated or markedly destroyed Top1 | –
2 | shCUL4B: lentiviral shRNA CUL4B sequence purchased from Sigma Aldrich, reduces CUL4B expression (CCGGGCAGAATTTAAAGAGGGTAAACTCGAGTTTACCCTCTTTAAATTCTGCTTTTT) | – | – | – | impaired

From patent publication US10106853B2, “CUL4B as predictive biomarker for cancer treatment” (CORNELL UNIVERSITY, priority 2012, dated 2018)
